Measured values as given in patent publication US7064120B2, “Tricyclic pyridyl carboxamides and derivatives thereof tocolytic oxytocin receptor antagonists” (Wyeth, priority 2001, dated 2006).

Molecular target: T1, human oxytocin receptor (Homo sapiens, UniProt P30559)
T1 construct: host or cells: CHO cells, stably transfected (pcDNA3.1 vector)
T1 sequence (P30559 1-389): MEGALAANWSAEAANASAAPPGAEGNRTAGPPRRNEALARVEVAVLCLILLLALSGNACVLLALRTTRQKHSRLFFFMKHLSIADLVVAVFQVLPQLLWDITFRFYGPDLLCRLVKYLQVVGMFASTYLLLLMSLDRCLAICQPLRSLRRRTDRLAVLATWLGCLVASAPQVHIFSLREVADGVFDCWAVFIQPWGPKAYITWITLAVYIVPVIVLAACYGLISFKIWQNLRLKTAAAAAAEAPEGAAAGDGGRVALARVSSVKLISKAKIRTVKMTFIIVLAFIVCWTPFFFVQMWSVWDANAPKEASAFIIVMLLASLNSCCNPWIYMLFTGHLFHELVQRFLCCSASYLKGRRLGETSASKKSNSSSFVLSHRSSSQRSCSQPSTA
Assay: Oxytocin binding in CHO cell membranes expressing human oxytocin receptors ([3H]oxytocin radioligand binding)
Settings: 100 nM, read-out: OT % inhibition @ 100 nM
Experimental: Oxytocin Binding in Chinese Hamster Ovary Cell Membranes Expressing Human Oxytocin Receptors
Cell Culture medium (e.g. 30 mL for 1:30 split) is immediately added and mixed well to inactivate trypsin. 1 mL of detached cells is added to new culture flasks containing fresh Cell Culture medium (e.g. into 25 mL per T-150 flask), and mixed gently. The cells are incubated at 37° C. in 5% CO2. The medium is changed at 3 to 4 days interval (or as appropriate). […] All steps are done under sterile conditions.
The cells are washed twice gently with Hank's Balanced Salt solution (e.g., use 10 mL per T-150 flask). […] The contents are transferred to centrifuge tubes (50 mL size) kept in ice bath. All subsequent steps are done at 4° C. The tubes are centrifuged at 300×g for 15 min (1380 rpm on SORVAL, Model RT6000D, using rotor for 50 mL tubes). The supernatant is discarded and the cells suspended in homogenizing buffer (10 mM Tris-HCl containing 0.25 M sucrose and 1 mM EDTA, pH 7.4) ensuring that the volume of the buffer is about ten times the volume of the cell pellet. The cells are pooled into a centrifuge tube (50 mL) and homogenized with a Polytron at setting 6 for 10 sec. The homogenate is transferred into a Potter-Elvjehm homogenizer and homogenized with 3 strokes. The homogenate is centrifuged at 1500×g for 10 min at 4° C. (3100 rpm using SORVAL, model RT6000D, using a rotor for 50 mL tubes). The pellet is discarded. The supernatant is centrifuged at 100,000×g for 60 min. at 4° C. (Beckman L8-80M ultracentrifuge; spin at 37,500 rpm with rotor type 70 Ti for 50 mL tubes; 38,000 rpm with rotor type 8OTi for 15 mL tubes; or 35,800 rpm with rotor type 45Ti). The supernantant is discarded and the pellet suspended in 3 to 4 mL of Tris buffer (50 mM TRIS-HCl, pH 7.4). The protein content is estimated by the Bradford or Lowry method. The volume of the membrane suspension is adjusted with the membrane buffer (50 mM Tris-HCl containing 0.1% BSA and 0.1 mM PMSF) to give 3.0 mg/mL (or as appropriate) of protein. The membranes are aliquoted and stored at −70° C.
In wells of a 96-well format microtiter plate, is added 90, 110 or 130 μL (to make up a final volume of 200 μL) of assay buffer containing 50 mM of Tris-HCl (pH 7.4), […], 1 mg % aprotinin, 1 mg % leupeptin, 2 mg % 1,10-phenanthroline, 10 mg % trypsin inhibitor, and 0.1 mM PMSF. The inhibitors are added on the day of the experiment. The components are mixed at room temperature, and then kept in ice bath following adjustment of the pH to 7.4. […] For oxytocin and other peptide ligands, 20 μL of 50% DMSO is added and the assay buffer volume is adjusted accordingly. To each well is added 50 μL of frozen membrane suspension thawed immediately prior to use and diluted in assay buffer to the required concentration (equivalent to 25 to 50 μg of protein/well as needed). 20 μL of 8 nM [^3H]oxytocin in the assay buffer, prepared just before use is added and incubated at room temperature for 60 min. shaking the plate on a mechanical shaker for the first 15 min. The incubation is stopped by rapid filtration of the plate contents followed by washing with ice-cold buffer (50 mM Tris-HCl, pH 7.4) using a cell harvester (Tomtek and Printed filtermat-B filter paper). The filter paper is thoroughly dried (7–12 min. in a microwave oven) and impregnated with MeltiLex B/H melt-on scintillation wax sheets and the radioactivity counted in a betaplate scintillation counter.
Binding data is either reported as percent inhibition at a certain concentration or if an IC50 was calculated, as a nanomolar concentration.

`COc1cccc(-c2cc(OC)c(C(=O)N3Cc4ccc(C(=O)NCc5cccnc5)n4Cc4ccccc43)cc2Cl)c1` [Example 43, 10-[(6-Chloro-3,3′-dimethoxy-[1,1′-biphenyl]-4-yl)carbonyl]-N-(3-pyridinylmethyl)-10,11-dihydro-5H-pyrrolo[2,1-c][1,4]benzodiazepine-3-carboxamide] showed an inhibition at 0.1 µM of 18%.

`COc1cc(C(=O)N2Cc3ccc(C(=O)NCc4cccnc4)n3Cc3ccccc32)ccc1-c1cccc2ccccc12` [Example 44, 10-[3-Methoxy-4-(naphthalen-1-yl)benzoyl]-N-(3-pyridinylmethyl)-10,11-dihydro-5H-pyrrolo[2,1-c][1,4]benzodiazepine-3-carboxamide] showed an inhibition at 0.1 µM of 22%.

In the case of `COc1ccccc1-c1ccc(C(=O)N2Cc3ccc(C(=O)NCc4cccnc4)n3Cc3ccccc32)cc1OC` [Example 45, 10-[(2,2′-Dimethoxy-[1,1′-biphenyl]-4-yl)carbonyl]-N-(3-pyridinylmethyl)-10,11-dihydro-5H-pyrrolo[2,1-c][1,4]benzodiazepine-3-carboxamide], the inhibition at 0.1 µM is reported as 37%.

`COc1cccc(-c2ccc(C(=O)N3Cc4ccc(C(=O)NCc5cccnc5)n4Cc4ccccc43)cc2OC)c1` [Example 46, 10-[(2,3′-Dimethoxy-[1,1′-biphenyl]-4-yl)carbonyl]-N-(3-pyridinylmethyl)-10,11-dihydro-5H-pyrrolo[2,1-c][1,4]benzodiazepine-3-carboxamide] was tested, and the inhibition at 0.1 µM was 31%.

Work on `O=C(NCc1cccnc1)c1ccc2n1Cc1ccccc1N(C(=O)c1ccc(-c3cccc4ccccc34)cc1Cl)C2` [Example 47, 10-[2-Chloro-4-(naphthalen-1-yl)benzoyl]-N-(3-pyridinylmethyl)-10,11-dihydro-5H-pyrrolo[2,1-c][1,4]benzodiazepine-3-carboxamide] yielded an inhibition at 0.1 µM of 1%.

Compound `Cc1cc(C(=O)N2Cc3ccc(C(=O)NCc4cccnc4)n3Cc3ccccc32)ccc1-c1ccccc1C(F)(F)F` [Example 48, 10-{[2-Methyl-2′-trifluoromethyl-[1,1′-biphenyl]-4-yl]carbonyl}-N-(3-pyridinylmethyl)-10,11-dihydro-5H-pyrrolo[2,1-c][1,4]benzodiazepine-3-carboxamide] has an inhibition at 0.1 µM of 15%.

Compound `COc1ccccc1-c1ccc(C(=O)N2Cc3ccc(C(=O)NCCc4ccccn4)n3Cc3ccccc32)cc1C` [Example 49, 10-[(2′-Methoxy-2-methyl-[1,1′-biphenyl]-4-yl)carbonyl]-N-[2-(2-pyridinyl)ethyl]-10,11-dihydro-5H-pyrrolo[2,1-c][1,4]benzodiazepine-3-carboxamide] has an inhibition at 0.1 µM of 58%.

`Cc1ccccc1-c1ccc(C(=O)N2Cc3ccc(C(=O)NCCc4ccccn4)n3Cc3ccccc32)cc1C` [Example 50, 10-[(2,2′-Dimethyl-[1,1′-biphenyl]-4-yl)carbonyl]-N-[2-(2-pyridinyl)ethyl]-10,11-dihydro-5H-pyrrolo[2,1-c][1,4]benzodiazepine-3-carboxamide] was tested, and the inhibition at 0.1 µM was 67%.

For `COc1cccc(-c2ccc(C(=O)N3Cc4ccc(C(=O)NCCc5ccccn5)n4Cc4ccccc43)cc2C)c1` [Example 51, 10-[(3′-Methoxy-2-methyl-[1,1′-biphenyl]-4-yl)carbonyl]-N-[2-(2-pyridinyl)ethyl]-10,11-dihydro-5H-pyrrolo[2,1-c][1,4]benzodiazepine-3-carboxamide], the inhibition at 0.1 µM was 31%.

`COc1ccccc1-c1ccc(C(=O)N2Cc3ccc(C(=O)NCCc4ccccn4)n3Cc3ccccc32)cc1` [Example 52, 10-[(2′-Methoxy-[1,1′-biphenyl]-4-yl)carbonyl]-N-[2-(2-pyridinyl)ethyl]-10,11-dihydro-5H-pyrrolo[2,1-c][1,4]benzodiazepine-3-carboxamide] gave an inhibition at 0.1 µM of 51%.

For `Cc1ccccc1-c1ccc(C(=O)N2Cc3ccc(C(=O)NCCc4ccccn4)n3Cc3ccccc32)cc1` [Example 53, 10-[(2′-Methyl-[1,1′-biphenyl]-4-yl)carbonyl]-N-[2-(2-pyridinyl)ethyl]-10,11-dihydro-5H-pyrrolo[2,1-c][1,4]benzodiazepine-3-carboxamide], the inhibition at 0.1 µM was 6%.
